Patent US11192888B2, “Antibacterial compounds” (priority 2017, dated 2021)
Converted amounts (≈) assume the structure as drawn. *1 amine or outer side, *2 acyl side, *3 side chain or, on linkers, in order; H or OH if unused. Where a SMILES comes first, the peptide text is derived from it. [ ]: non-standard residue; d: D form. dAla(ψthiazole) = C[C@@H](N[*:1])c1nc(C(=O)[*:2])cs1; Trp(4-Br) = N[C@@H](Cc1c[nH]c2cccc(Br)c12)C(=O)O; Dha = C=C(N)C(=O)O; Sar = CNCC(=O)O

Legend:
[1] = system: Actinomyces viscosus DSM 43327
[2] = system: Staphylococcus aureus ATCC 29213
[3] = system: Enterococcus faecium NCTC 12204
[4] = system: Bifidobacterium bifidum ATCC 11863
[5] = system: Proteus mirabilis DSM 30116
P. aeruginosa PAO1 = details: PAO1, 13 h
[6] = system: Propionibacterium acnes ATCC 6919
[7] = system: Bifidobacterium breve ATCC 15700
[8] = system: Enterobacter cloacae NCTC 13406
[9] = system: Pseudomonas aeruginosa ATCC 27853
Strep. pyogenes = details: 13 h
[10] = system: Pseudomonas aeruginosa NCTC 13437
B. cepasia ATCC25416 = experiment: Growth of Burkholderia with compound (FIG. 3), B. cepasia; format: cell-based; details: FIG. 3, LB broth, 17 hours
Method: (§1) FIG. 3 is a graph showing the effect of varying concentrations of compound 3 according to the invention on the growth of Burkholderia in Lysogeny broth (LB broth) after 17 hours.
(§2) Compound 3 was tested to determine its antibacterial activity against B. multivorans, B. cepasia and B. vietnamiensis.

[11] = system: Clostridium perfringens NCTC 8237
[12] = system: clinical isolates and one wild-type strain of P. aeruginosa; experiment: Growth of P. aeruginosa clinical isolates and wild-type strain with compounds (FIG. 1); format: cell-based, Pseudomonas aeruginosa; details: isolates W4, W14, W23, W46 and PAO1; MH media, 13 hours (FIG. 1)
Method: FIGS. 1a and 1b are graphs showing the effects of varying concentrations of compounds 2 and 3 according to the invention on the growth of different strains of P. aeruginosa in Müller-Hinton (MH) media, after 13 hours.
The antibacterial activity of compounds 2 and 3 were tested against clinical isolates and one wild-type strain of P. aeruginosa displaying varying antibiotic sensitivity.
The antibacterial activity of compounds 2 and 3 were tested against these clinical isolates and one wild-type strain of P. aeruginosa.

B. vietnamiensis J2863 = experiment: Growth of Burkholderia with compound (FIG. 3), B. vietnamiensis; format: cell-based; details: FIG. 3, LB broth, 17 hours
Method: as §1, §2

[13] = system: Citrobacter koseri Clinical
[14] = system: Corynebacterium urealyticum NCTC 12011
[15] = system: Clostridium sordellii ATCC 9714; experiment: CLSI MIC, representative gut bacteria; format: cell-based
Method: (§3) Comparative in vitro bacterial susceptibility to compounds 3, 9 and 10, vancomycin and metronidazole was determined using methods according to the Clinical and Laboratory Standard Institute (CLSI) approved guidelines (M7-A10, M11-A7 or M45-A2) for anaerobic and aerobic organisms.

[16] = system: Clostridium difficile ATCC 43255; experiment: CLSI MIC, representative gut bacteria; format: cell-based; details: Clostridium difficile ATCC 43255
Method: as §3

[17] = system: Corynebacterium jeikeium NCTC 11914
[18] = system: Escherichia coli ATCC 25922
Strep. agalactiae = details: 13 h
[19] = system: Corynebacterium striatium NCTC 764
[20] = Method: In this study, a single oral dose of compound 3 in 0.5% w/v aqueous methylcellulose at 5 mg/kg was administered to nine mice in a 10 mL/kg dosing volume and housed in metabolism cages. Following administration of the compound, serial blood samples of 50 μL was taken from the lateral tail vein at each of 7 post-dosing time-points (0.25, 0.5, 1, 2, 4, 7 and 24 h). Whole blood samples were then diluted 1:1 with water and two 40 μL aliquots were pipetted into duplicate 96 well plate tubes. At the end of 24 h, all faecal samples were collected and pooled. A quantitative bioanalysis by LC-MS/MS of the blood and faecal levels of compound 3 was carried out to determine the oral absorbability and gastrointestinal metabolic stability of compound 3.
To evaluate the metabolic stability of orally administered compound 3, metabolite profiling of the faecal sample was performed.

[21] = system: Bacteroides fragilis ATCC 25285; details: ATCC 25285
[22] = system: Clostridium ramosum DSM 1402
[23] = system: Clostridium innocuum DSM 1286
[24] = system: Clostridium difficile 630Δerm; details: 13 h
[25] = system: Lactobacillus rhamnosus ATCC 53103
[26] = system: Enterococcus faecalis ATCC 29212

Q: For `C=C1NC(=O)[C@@H](C)NC(=O)CNC(=O)[C@H](Cc2c[nH]c3cccc(Br)c23)NC(=O)[C@H](Cc2c[nH]c3ccccc23)NC(=O)c2csc(n2)[C@@H](C)NC(=O)CN(C)C1=O` [Compound 3, Cyclo[D-Ala-Thz-Trp-Trp(4-Br)-Gly-D-Ala-Dha-Sar]] (cyclo([Dha][Sar][dAla(ψthiazole)]W[Trp(4-Br)]G[dA])), which MIC [1] is on record?
A: 64 µg/mL (≈ 73.2 µM)

Q: What about the MIC [2] of the same compound?
A: >64 µg/mL

Q: What about the MIC [3] of the same compound?
A: >64 µg/mL

Q: What about the MIC [4] of the same compound?
A: >64 µg/mL

Q: What about the MIC [5] of the same compound?
A: >64 µg/mL

Q: What about the IC50 (P. aeruginosa PAO1) of the same compound?
A: 13.2 ± 3.2 µM

Q: What about the “% Growth inhibition at 100 μM” value (P. aeruginosa PAO1; 100) of the same compound?
A: 85.7 ± 0.6%

Q: And the MIC [6]?
A: >64 µg/mL

Q: What about the MIC [7] of the same compound?
A: >64 µg/mL

Q: And the MIC [8]?
A: >64 µg/mL

Q: What about the MIC [9] of the same compound?
A: >64 µg/mL

Q: And the IC50 (Strep. pyogenes)?
A: > 100 µM

Q: What about the MIC [10] of the same compound?
A: >64 µg/mL

Q: What about the “antibacterial activity (growth decrease)” value (B. cepasia ATCC25416) of the same compound?
A: highly active

Q: And the MIC [11]?
A: >64 µg/mL

Q: And the “susceptibility of the isolates to the compound” value [12]?
A: equally susceptible

Q: And the “antibacterial activity (growth decrease)” value (B. vietnamiensis J2863)?
A: highly active

Q: And the MIC [13]?
A: >64 µg/mL

Q: What about the MIC [14] of the same compound?
A: >64 µg/mL

Q: What about the MIC [15] of the same compound?
A: 32 µg/mL (≈ 36.6 µM)

Q: What about the MIC [16] of the same compound?
A: 1.0 µg/mL (≈ 1.14 µM)

Q: And the MIC [17]?
A: >64 µg/mL

Q: And the MIC [18]?
A: >64 µg/mL

Q: And the IC50 (Strep. agalactiae)?
A: > 100 µM

Q: What about the MIC [19] of the same compound?
A: >64 µg/mL

Q: What about the “share of the mass of compounds detected in pooled faecal sample that corresponds to the compound” value ([20]; LC-MS metabolite profiling, above control sample) of the same compound?
A: 85%

Q: What about the “compound recovered from pooled faeces” value ([20]; oral 5 mg/kg, mice, 24 h) of the same compound?
A: 63%

Q: What about the “systemic exposure (blood)” value ([20]; single oral dose 5 mg/kg, mice, over 24 h) of the same compound?
A: undetectable

Q: And the MIC [21]?
A: >64 µg/mL

Q: And the MIC [22]?
A: >64 µg/mL

Q: What about the IC50 (B. multivorans ATCC17616; ATCC17616, 25 h) of the same compound?
A: 1.6 ± 1.4 µM

Q: And the “antibacterial activity (growth decrease)” value (B. multivorans ATCC17616; FIG. 3, LB broth, 17 hours)?
A: highly active

Q: What about the MIC [23] of the same compound?
A: >64 µg/mL

Q: What about the IC50 [24] of the same compound?
A: 0.13 ± 0.02 µM

Q: What about the MIC [25] of the same compound?
A: >64 µg/mL

Q: And the MIC [26]?
A: >64 µg/mL
